Measured values from patent US20230072421A1, “TARGETED RADIOPHARMACEUTICALS FOR THE DIAGNOSIS AND TREATMENT OF PROSTATE CANCER” (Bayer AS, priority 2019, published 2023).

Molecular target: T1, PSMA-expressing LNCaP cells (Homo sapiens, UniProt Q04609)
T1 construct: PSMA-expressing LNCaP cells; endogenous in cells; host or cells: LNCaP
Experiment: Binding competition assay against 3H-PSMA-617 on LNCaP cells
Settings: for remaining activity at 0.01 µM / remaining activity at 0.1 µM: LNCaP cells, 10 nM 3H-PSMA-617, 2 h at 37° C., triplicates; for remaining activity at 0.01 µM: competing non-radiolabeled compound 10 nM; for remaining activity at 0.1 µM: competing non-radiolabeled compound 100 nM; for competition against 3H-PSMA-617 on PSMA-expressing LNCaP cells (in words): comparison between examples
Method in brief: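 Compounds added to LNCaP cells in growth medium, 2 h at 37 °C, 5% CO2. After two ice-cold PBS washes, cells lysed in 0.3 M NaOH and bound radioactivity measured by liquid scintillation counting.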

T1 sequence (Q04609 whole entry): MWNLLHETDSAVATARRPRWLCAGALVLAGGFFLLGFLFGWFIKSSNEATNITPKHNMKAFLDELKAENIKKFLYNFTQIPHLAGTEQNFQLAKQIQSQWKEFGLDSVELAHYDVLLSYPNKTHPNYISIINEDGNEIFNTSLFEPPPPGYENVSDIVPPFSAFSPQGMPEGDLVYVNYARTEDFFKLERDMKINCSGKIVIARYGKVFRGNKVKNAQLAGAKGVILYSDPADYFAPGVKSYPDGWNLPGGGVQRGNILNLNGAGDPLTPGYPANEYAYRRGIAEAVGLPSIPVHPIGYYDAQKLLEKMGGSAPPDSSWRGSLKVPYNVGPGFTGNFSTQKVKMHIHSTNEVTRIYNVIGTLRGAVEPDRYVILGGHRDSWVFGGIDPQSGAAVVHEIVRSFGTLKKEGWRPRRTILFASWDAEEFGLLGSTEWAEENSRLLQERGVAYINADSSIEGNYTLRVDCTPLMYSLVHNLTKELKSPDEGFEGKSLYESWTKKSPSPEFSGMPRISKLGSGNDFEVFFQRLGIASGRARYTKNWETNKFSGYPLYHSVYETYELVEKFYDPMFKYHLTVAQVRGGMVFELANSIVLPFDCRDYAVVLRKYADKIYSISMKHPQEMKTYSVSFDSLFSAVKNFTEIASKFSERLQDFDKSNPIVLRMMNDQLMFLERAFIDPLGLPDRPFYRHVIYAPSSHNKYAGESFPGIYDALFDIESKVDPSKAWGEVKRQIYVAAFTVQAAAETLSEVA

Row | SMILES | remaining activity at 0.01 µM | remaining activity at 0.1 µM | competition against 3H-PSMA-617 on PSMA-expressing LNCaP cells (in words)
1 | NCc1ccc(C(=O)N[C@@H](Cc2ccc3ccccc3n2)C(=O)NCCCC[C@H](NC(=O)N[C@@H](CCC(=O)O)C(=O)O)C(=O)O)nc1 [Example 34-A, N^6—{N-[5-(aminomethyl)pyridine-2-carbonyl]-3-(quinolin-2-yl)-L-alanyl}-N^2-{[(1S)-1,3-dicarboxypropyl]carbamoyl}-L-lysine] | 50% | 9% | improved competition
2 | O=C(O)CC[C@H](NC(=O)N[C@@H](CCCCNC(=O)[C@H](Cc1ccc2ccccc2n1)NC(=O)c1ccc(CNC(=O)CN2CCN(CC(=O)O)CCN(CC(=O)O)CCN(CC(=O)O)CC2)cn1)C(=O)O)C(=O)O [Example 34-B, N^6-{3-(quinolin-2-yl)-N-[5-({2-[4,7,10-tris(carboxymethyl)-1,4,7,10-tetraazacyclododecan-1-yl]acetamido}methyl)pyridine-2-carbonyl]-L-alanyl}-N^2-{[(1S)-1,3-dicarboxypropyl]carbamoyl}-L-lysine] | 43% | 6% | improved competition
3 | CNCC[C@H]1CC[C@H](C(=O)N[C@H](Cc2cc(OC)c3ccccc3c2)C(=O)NCCCC[C@H](NC(=O)N[C@@H](CCC(=O)O)C(=O)O)C(=O)O)CC1 [Example 35-A, (3R,10S,14S)-3-[(4-methoxynaphthalen-2-yl)methyl]-1-{(1r,4S)-4-[2-(methylamino)ethyl]cyclohexyl}-1,4,12-trioxo-2,5,11,13-tetraazahexadecane-10,14,16-tricarboxylic acid] | 113% | 60% | –
4 | O=C(O)CC[C@H](NC(=O)N[C@@H](CCCCNC(=O)[C@H](Cc1cc2ccccc2cn1)NC(=O)[C@H]1CC[C@H](CNC(=O)CN2CCN(CC(=O)O)CCN(CC(=O)O)CCN(CC(=O)O)CC2)CC1)C(=O)O)C(=O)O [Example 36-B, N^6-{3-(isoquinolin-3-yl)-N-[(1r,4S)-4-({2-[4,7,10-tris(carboxymethyl)-1,4,7,10-tetraazacyclododecan-1-yl]acetamido}methyl)cyclohexane-1-carbonyl]-L-alanyl}-N^2-{[(1S)-1,3-dicarboxypropyl]carbamoyl}-L-lysine] | 92% | 29% | –
5 | CNc1cc(C[C@@H](NC(=O)[C@H]2CC[C@H](CN)CC2)C(=O)NCCCC[C@H](NC(=O)N[C@@H](CCC(=O)O)C(=O)O)C(=O)O)cc2ccccc12 [Example 37-A, (3R,10S,14S)-1-[(1r,4S)-4-(aminomethyl)cyclohexyl]-3-{[4-(methylamino)naphthalen-2-yl]methyl}-1,4,12-trioxo-2,5,11,13-tetraazahexadecane-10,14,16-tricarboxylic acid] | 145% | 75% | –
6 | CNc1cc(C[C@@H](NC(=O)[C@H]2CC[C@H](CNC(=O)CN3CCN(CC(=O)O)CCN(CC(=O)O)CCN(CC(=O)O)CC3)CC2)C(=O)NCCCC[C@H](NC(=O)N[C@@H](CCC(=O)O)C(=O)O)C(=O)O)cc2ccccc12 [Example 37-B, (3R,10S,14S)-3-{[4-(methylamino)naphthalen-2-yl]methyl}-1,4,12-trioxo-1-[(1r,4S)-4-({2-[4,7,10-tris(carboxymethyl)-1,4,7,10-tetraazacyclododecan-1-yl]acetamido}methyl)cyclohexyl]-2,5,11,13-tetraazahexadecane-10,14,16-tricarboxylic acid] | 55% | 11% | –
7 | NC[C@H]1CC[C@H](C(=O)N[C@H](Cc2ccc3c(c2)CCCO3)C(=O)NCCCC[C@H](NC(=O)N[C@@H](CCC(=O)O)C(=O)O)C(=O)O)CC1 [Example 38-A, N^6—{N-[(1r,4S)-4-(aminomethyl)cyclohexane-1-carbonyl]-3-(3,4-dihydro-2H-1-benzopyran-6-yl)-D-alanyl}-N^2-{[(1S)-1,3-dicarboxypropyl]carbamoyl}-L-lysine] | 140% | 106% | –
8 | O=C(O)CC[C@H](NC(=O)N[C@@H](CCCCNC(=O)[C@@H](Cc1ccc2c(c1)CCCO2)NC(=O)[C@H]1CC[C@H](CNC(=O)CN2CCN(CC(=O)O)CCN(CC(=O)O)CCN(CC(=O)O)CC2)CC1)C(=O)O)C(=O)O [Example 38-B, N^6-{3-(3,4-dihydro-2H-1-benzopyran-6-yl)-N-[(1r,4S)-4-({2-[4,7,10-tris(carboxymethyl)-1,4,7,10-tetraazacyclododecan-1-yl]acetamido}methyl)cyclohexane-1-carbonyl]-D-alanyl}-N^2-{[(1S)-1,3-dicarboxypropyl]carbamoyl}-L-lysine] | 76% | 34% | –
9 | CNc1cc2ccccc2cc1C[C@@H](NC(=O)[C@H]1CC[C@H](CNC(=O)CN2CCN(CC(=O)O)CCN(CC(=O)O)CCN(CC(=O)O)CC2)CC1)C(=O)NCCCC[C@H](NC(=O)N[C@@H](CCC(=O)O)C(=O)O)C(=O)O [Example 39-B, (3R,10S,14S)-3-{[3-(methylamino)naphthalen-2-yl]methyl}-1,4,12-trioxo-1-[(1r,4S)-4-({2-[4,7,10-tris(carboxymethyl)-1,4,7,10-tetraazacyclododecan-1-yl]acetamido}methyl)cyclohexyl]-2,5,11,13-tetraazahexadecane-10,14,16-tricarboxylic acid] | 81% | 32% | –
10 | N[C@H]1CC[C@H](CNC(=O)N[C@@H](Cc2ccc3ccccc3c2)C(=O)NCCCC[C@H](NC(=O)N[C@@H](CCC(=O)O)C(=O)O)C(=O)O)CC1 [Example 40-A, (5S,12S,16S)-1-[(1r,4S)-4-aminocyclohexyl]-5-[(naphthalen-2-yl)methyl]-3,6,14-trioxo-2,4,7,13,15-pentaazaoctadecane-12,16,18-tricarboxylic acid] | 87% | 62% | –
11 | O=C(O)CC[C@H](NC(=O)N[C@@H](CCCCNC(=O)[C@@H](Cc1ccc2ccncc2c1)NC(=O)[C@H]1CC[C@H](CNC(=O)CN2CCN(CC(=O)O)CCN(CC(=O)O)CCN(CC(=O)O)CC2)CC1)C(=O)O)C(=O)O [Example 42-B, (3R,10S,14S)-3-[(isoquinolin-7-yl)methyl]-1,4,12-trioxo-1-[(1r,4S)-4-({2-[4,7,10-tris(carboxymethyl)-1,4,7,10-tetraazacyclododecan-1-yl]acetamido}methyl)cyclohexyl]-2,5,11,13-tetraazahexadecane-10,14,16-tricarboxylic acid] | 88% | 34% | –
12 | O=C(O)CC[C@H](NC(=O)N[C@@H](CCCCNC(=O)[C@@H](Cc1ccc2cnccc2c1)NC(=O)[C@H]1CC[C@H](CNC(=O)CN2CCN(CC(=O)O)CCN(CC(=O)O)CCN(CC(=O)O)CC2)CC1)C(=O)O)C(=O)O [Example 44-B, (3R,10S,14S)-3-[(isoquinolin-6-yl)methyl]-1,4,12-trioxo-1-[(1r,4S)-4-({2-[4,7,10-tris(carboxymethyl)-1,4,7,10-tetraazacyclododecan-1-yl]acetamido}methyl)cyclohexyl]-2,5,11,13-tetraazahexadecane-10,14,16-tricarboxylic acid] | 75% | 22% | –

Continued, in another order:

Row | remaining activity at 0.01 µM | remaining activity at 0.1 µM | SMILES | competition against 3H-PSMA-617 on PSMA-expressing LNCaP cells (in words)
13 | 98% | 73% | NC[C@H]1CC[C@H](C(=O)N[C@@H](Cc2cc3ccccc3cn2)C(=O)NCCCC[C@H](NC(=O)N[C@@H](CCC(=O)O)C(=O)O)C(=O)O)CC1 [Example 36-A, N^6—{N-[(1r,4S)-4-(aminomethyl)cyclohexane-1-carbonyl]-3-(isoquinolin-3-yl)-L-alanyl}-N^2-{[(1S)-1,3-dicarboxypropyl]carbamoyl}-L-lysine] | –
14 | 82% | 61% | NC[C@H]1CC[C@H](C(=O)N[C@H](Cc2csc3ccc(Cl)cc23)C(=O)NCCCC[C@H](NC(=O)N[C@@H](CCC(=O)O)C(=O)O)C(=O)O)CC1 [Example 41-A, N^6—{N-[(1r,4S)-4-(aminomethyl)cyclohexane-1-carbonyl]-3-(5-chloro-1-benzothiophen-3-yl)-D-alanyl}-N^2-{[(1S)-1,3-dicarboxypropyl]carbamoyl}-L-lysine] | –
15 | 86% | 78% | NC[C@H]1CC[C@H](C(=O)N[C@H](Cc2ccc3ccncc3c2)C(=O)NCCCC[C@H](NC(=O)N[C@@H](CCC(=O)O)C(=O)O)C(=O)O)CC1 [Example 42-A, (3R,10S,14S)-1-[(1r,4S)-4-(aminomethyl)cyclohexyl]-3-[(isoquinolin-7-yl)methyl]-1,4,12-trioxo-2,5,11,13-tetraazahexadecane-10,14,16-tricarboxylic acid] | –
16 | 96% | 82% | NC[C@H]1CC[C@H](C(=O)N[C@@H](Cc2csc3ccccc23)C(=O)NCCCC[C@H](NC(=O)N[C@@H](CCC(=O)O)C(=O)O)C(=O)O)CC1 [Example 43-A, N^6—{N-[(1r,4S)-4-(aminomethyl)cyclohexane-1-carbonyl]-3-(1-benzothiophen-3-yl)-L-alanyl}-N^2-{[(1S)-1,3-dicarboxypropyl]carbamoyl}-L-lysine] | –
17 | 85% | 68% | NC[C@H]1CC[C@H](C(=O)N[C@H](Cc2ccc3cnccc3c2)C(=O)NCCCC[C@H](NC(=O)N[C@@H](CCC(=O)O)C(=O)O)C(=O)O)CC1 [Example 44-A, (3R,10S,14S)-1-[(1r,4S)-4-(aminomethyl)cyclohexyl]-3-[(isoquinolin-6-yl)methyl]-1,4,12-trioxo-2,5,11,13-tetraazahexadecane-10,14,16-tricarboxylic acid] | –
18 | 93% | 87% | NC[C@H]1CC[C@H](C(=O)N[C@H](Cc2ccc3cccnc3c2)C(=O)NCCCC[C@H](NC(=O)N[C@@H](CCC(=O)O)C(=O)O)C(=O)O)CC1 [Example 45-A, (3R,10S,14S)-1-[(1r,4S)-4-(aminomethyl)cyclohexyl]-1,4,12-trioxo-3-[(quinolin-7-yl)methyl]-2,5,11,13-tetraazahexadecane-10,14,16-tricarboxylic acid] | –
